Measured values taken from the NIST ThermoML archive (doi:10.1016/j.jct.2017.08.032).

CCCCn1cc[n+](C)c1.F[P-](F)(F)(F)(F)F [1-butyl-3-methylimidazolium hexafluorophosphate]
101.33 kPa, Liquid
Conditions	mass density, Vibrating tube method [kg/m3]	viscosity, Falling or rolling sphere viscometry [mPa·s]
283.15 K	1380	779.5
293.15 K	1372	345.1
303.15 K	1363	185.1
313.15 K	1354	109.6
323.15 K	1346	69.7
333.15 K	1339	46.59
343.15 K	1332	32.67
353.15 K	1323	23.85
363.15 K	1314	18.03

CCCCn1cc[n+](C)c1.O=S(=O)([O-])C(F)(F)F [1-butyl-3-methylimidazolium trifluoromethanesulfonate]
101.33 kPa, Liquid
Conditions	mass density, Vibrating tube method [kg/m3]	viscosity, Falling or rolling sphere viscometry [mPa·s]
283.15 K	1309	183.3
293.15 K	1301	106.5
303.15 K	1293	66.58
313.15 K	1285	44.45
323.15 K	1277	31.17
333.15 K	1270	22.81
343.15 K	1262	17.24
353.15 K	1254	13.48
363.15 K	1247	10.73

CCn1cc[n+](C)c1.O=S(=O)([N-]S(=O)(=O)C(F)(F)F)C(F)(F)F
101.33 kPa, Liquid
Conditions	mass density, Vibrating tube method [kg/m3]	viscosity, Falling or rolling sphere viscometry [mPa·s]
283.15 K	1531	56.17
293.15 K	1521	37.23
303.15 K	1510	26.55
313.15 K	1500	19.6
323.15 K	1491	15.01
333.15 K	1483	11.84
343.15 K	1474	9.57
353.15 K	1465	7.9
363.15 K	1455	6.65

CCCCn1cc[n+](C)c1.CCOS(=O)(=O)[O-] [1-butyl-3-methyl-1H-imidazolium ethyl sulfate]
101.33 kPa, Liquid
Conditions	mass density, Vibrating tube method [kg/m3]	viscosity, Falling or rolling sphere viscometry [mPa·s]
283.15 K	1193	672.1
293.15 K	1186	334
303.15 K	1180	181
313.15 K	1173	110.3
323.15 K	1166	70.37
333.15 K	1160	47.41
343.15 K	1153	33.67
353.15 K	1146	24.88
363.15 K	1139	19.11

C[N+](C)(C)CCO.O=S(=O)([N-]S(=O)(=O)C(F)(F)F)C(F)(F)F [choline bis(trifluoromethylsulfonyl)imide]
101.33 kPa
Conditions	mass density [kg/m3]	viscosity [mPa·s]
293.15 K, Metastable liquid, Falling or rolling sphere viscometry	–	187.9
293.15 K, Metastable liquid, Vibrating tube method	1539	–
303.15 K, Metastable liquid, Falling or rolling sphere viscometry	–	111.5
303.15 K, Metastable liquid, Vibrating tube method	1530	–
313.15 K, Falling or rolling sphere viscometry, Liquid	–	71.05
313.15 K, Vibrating tube method, Liquid	1520	–
323.15 K, Falling or rolling sphere viscometry, Liquid	–	47.94
323.15 K, Vibrating tube method, Liquid	1511	–
333.15 K, Falling or rolling sphere viscometry, Liquid	–	34.09
333.15 K, Vibrating tube method, Liquid	1504	–
343.15 K, Falling or rolling sphere viscometry, Liquid	–	25.6
343.15 K, Vibrating tube method, Liquid	1495	–
353.15 K, Falling or rolling sphere viscometry, Liquid	–	19.61
353.15 K, Vibrating tube method, Liquid	1486	–
363.15 K, Falling or rolling sphere viscometry, Liquid	–	15.43
363.15 K, Vibrating tube method, Liquid	1476	–

CCCC[n+]1ccn(C)c1.O=S(=O)([N-]S(=O)(=O)C(F)(F)F)C(F)(F)F
101.33 kPa, Liquid
Conditions	mass density, Vibrating tube method [kg/m3]	viscosity, Falling or rolling sphere viscometry [mPa·s]
283.15 K	1448	88.06
293.15 K	1438	54.17
303.15 K	1428	35.88
313.15 K	1418	25.32
323.15 K	1408	18.69
333.15 K	1399	14.34
343.15 K	1390	11.22
353.15 K	1379	8.99
363.15 K	1370	7.38

CCC[N+]1(C)CCCCC1.O=S(=O)([N-]S(=O)(=O)C(F)(F)F)C(F)(F)F
101.33 kPa
Conditions	mass density [kg/m3]	viscosity [mPa·s]
283.15 K, Metastable liquid, Falling or rolling sphere viscometry	–	350.3
283.15 K, Metastable liquid, Vibrating tube method	1422	–
293.15 K, Falling or rolling sphere viscometry, Liquid	–	174.4
293.15 K, Vibrating tube method, Liquid	1413	–
303.15 K, Falling or rolling sphere viscometry, Liquid	–	99.68
303.15 K, Vibrating tube method, Liquid	1404	–
313.15 K, Falling or rolling sphere viscometry, Liquid	–	62.11
313.15 K, Vibrating tube method, Liquid	1395	–
323.15 K, Falling or rolling sphere viscometry, Liquid	–	40.78
323.15 K, Vibrating tube method, Liquid	1386	–
333.15 K, Falling or rolling sphere viscometry, Liquid	–	29.14
333.15 K, Vibrating tube method, Liquid	1379	–
343.15 K, Falling or rolling sphere viscometry, Liquid	–	21.36
343.15 K, Vibrating tube method, Liquid	1371	–
353.15 K, Falling or rolling sphere viscometry, Liquid	–	16.25
353.15 K, Vibrating tube method, Liquid	1363	–
363.15 K, Falling or rolling sphere viscometry, Liquid	–	12.75
363.15 K, Vibrating tube method, Liquid	1353	–
